From patent EP0329295A1, “Renin inhibiting peptides with polar end groups” (THE UPJOHN COMPANY, priority 1988, dated 1989)
*1 amine or outer side, *2 acyl side, *3 side chain or, on linkers, in order; H or OH if unused. Where a SMILES comes first, the peptide text is derived from it. [ ]: non-standard residue; d: D form. The star is where a group is joined. NH(β-GlcNAc) = CC(=O)N[C@@H]1[C@@H](O)[C@H](O)[C@@H](CO)O[C@H]1N*; X1 = CC(C)C[C@H](N[*:1])[C@@H](O)C[C@H](C(=O)[*:2])C(C)C; X2 = OC[C@H]1O[C@@H](N*)[C@@H](O)[C@@H](O)[C@@H]1O; GlcN = OC[C@H]1OC(O)[C@H](N*)[C@@H](O)[C@@H]1O; NMeH = CN[C@@H](Cc1c[nH]cn1)C(=O)O; NHCH2(2-pyridyl) = c1ccc(CN*)nc1; Boc = CC(C)(C)OC(=O)*; CO = O=C([*:1])[*:2]

target: T1, renin (Homo sapiens, UniProt P00797); experiment: renin inhibitory activity (IC50), determined as described in EP 0173481, pages 103-105; format: biochemical; details: renin inhibition; values given in molar units
T1 sequence (P00797 67-406): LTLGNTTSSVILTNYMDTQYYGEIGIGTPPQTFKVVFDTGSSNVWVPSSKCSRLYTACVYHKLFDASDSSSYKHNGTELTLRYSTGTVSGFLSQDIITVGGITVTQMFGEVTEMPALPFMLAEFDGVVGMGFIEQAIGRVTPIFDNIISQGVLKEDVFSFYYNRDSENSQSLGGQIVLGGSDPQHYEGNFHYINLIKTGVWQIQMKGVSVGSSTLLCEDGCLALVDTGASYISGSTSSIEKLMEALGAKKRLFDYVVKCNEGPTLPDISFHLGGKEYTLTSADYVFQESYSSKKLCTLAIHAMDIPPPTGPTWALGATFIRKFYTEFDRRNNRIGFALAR
Description: The determination of renin inhibitory activity of the compounds of the present invention (ICso's) are well known to one of ordinary skill in the art, as, for example, described in published European application 0173481, published 5 March 1986, pages 103-105.

IC50 [nM] | SMILES
1.5 | CC(C)[C@H](C[C@H](O)[C@H](CC1CCCCC1)NC(=O)[C@H](Cc1c[nH]cn1)N(C)C(=O)[C@H](Cc1ccccc1)NC(=O)[C@@H]1CCCN1C(=O)N[C@H]1C(O)O[C@H](CO)[C@@H](O)[C@@H]1O)C(=O)NC[C@H](C)O (relative stereo) [Example 29, [1 S-[1 R*,2R*,4R*(R*)]]-1-[[(2-Deoxy-D-glucopyranos-2-yl)amino]carbonyl]-L-Prolyl-L-phenylalaryl-N-[1-(cyclohexylmethyl)-2-hydroxy-4-[[(2-hydroxypropyl)-amino]carbonyl]-5-methylhexyl]-Nα-methyl-L-histidinamide]
0.3 | COC(=O)CC[C@H](NC(=O)[C@@H](C[C@H](O)[C@H](CC1CCCCC1)NC(=O)[C@H](Cc1c[nH]cn1)N(C)C(=O)[C@H](Cc1ccccc1)NC(=O)[C@@H]1CCCN1C(=O)NC(CO)(CO)CO)C(C)C)C(=O)NCc1ccccn1 (relative stereo) [Example 32, [1 S-[1R*,2R*,4R*(R*)]]-1-[[[2-Hydroxy-1,1-bis(hydroxymethyl)ethyl]amino]carbonyl]-L-prolyl-L-phenylalaryl-N-[1-(cyclohexylmethyl)-2-hydroxy-4-[[[4-methoxy-4-oxo-1-[[(2-pyridinylmethyl)amino]carbonyl]-butyl]-amino]carbonyl]-5-methyl-hexyl]-Nα-methyl-L-histidinamide]
0.41 | CC[C@H](C)[C@H](NC(=O)[C@@H](C[C@H](O)[C@H](CC(C)C)NC(=O)[C@H](Cc1c[nH]cn1)N(C)C(=O)[C@H](Cc1ccccc1)NC(=O)[C@@H]1CCCN1C(=O)[C@H](CC(=O)N[C@@H]1O[C@H](CO)[C@@H](O)[C@H](O)[C@H]1NC(C)=O)NC(=O)OC(C)(C)C)C(C)C)C(=O)NCc1ccccn1 [Example 36, β-N-AcGLc-α-N-Boc-Asn-Pro-Phe-N-MeHis-Leu[CH(OH)CH2]-Val-Ile-AMP] (Boc-D(NH(β-GlcNAc))PF[NMeH][X1]I-{NHCH2(2-pyridyl)})
0.55 | CC[C@H](C)[C@H](NC(=O)[C@@H](C[C@H](O)[C@H](CC(C)C)NC(=O)[C@H](Cc1c[nH]cn1)N(C)C(=O)[C@H](Cc1ccccc1)NC(=O)[C@@H]1CCCN1C(=O)[C@H](CC(=O)N[C@@H]1O[C@H](CO)[C@@H](O)[C@H](O)[C@@H]1O)NC(=O)OC(C)(C)C)C(C)C)C(=O)NCc1ccccn1 [Example 38, β-Man-α-N-Boc-Asn-Pro-Phe-N-MeHis-Leu[CH(OH)CH2]-Val-Ile-AMP] (Boc-D(X2)PF[NMeH][X1]I-{NHCH2(2-pyridyl)})

SMILES | IC50 [nM]
CC[C@H](C)[C@H](NC(=O)[C@@H](C[C@H](O)[C@H](CC(C)C)NC(=O)[C@H](Cc1c[nH]cn1)N(C)C(=O)[C@H](Cc1ccccc1)NC(=O)[C@@H]1CCCN1C(=O)N[C@H]1C(O)O[C@H](CO)[C@@H](O)[C@@H]1O)C(C)C)C(=O)NCc1ccccn1 (stereo partly drawn) [Example 9, N-(Glucosaminocarbonyl)-Pro-Phe-N(Me)His-LVA-lie-AMP] ({GlcN-CO}-PF[NMeH][X1]I-{NHCH2(2-pyridyl)}) | 0.49

same assay, conditions: renin inhibition; values in nM

IC50 [nM] | SMILES
0.26 | CC(C)C[C@H](O)[C@H](O)[C@H](CC1CCCCC1)NC(=O)[C@H](Cc1c[nH]cn1)N(C)C(=O)[C@H](Cc1ccccc1)NC(=O)[C@@H]1CCCN1C(=O)NC(CO)(CO)CO (relative stereo) [Example 12, L-Histidinamide, 1-[[[2-hydroxy-1,1-bis(hydroxymethyl)ethyl]amino]carbonyl]-L-prolyl-L-phenylalanyl-N-[1 (cyclohexylmethyl)-2,3-dihydroxy-5-methylhexyl]-Nα-methyl-, [1 S-(1 R*,2S*,3R*)-]-]
2.4 | CC(C)C[C@H](O)[C@H](O)[C@H](CC1CCCCC1)NC(=O)[C@H](Cc1c[nH]cn1)N(C)C(=O)[C@H](Cc1ccccc1)NC(=O)[C@@H]1CCCN1C(=O)N[C@H]1C(O)O[C@H](CO)[C@@H](O)[C@@H]1O (relative stereo) [Example 13, L-Histadinamide, 1-([(2-deoxy-D-glucopyranos-2-yl)amino]carbonyl]-L-prolyl-L-phenylalanyl-N-[1-(cyclohexylmethyl)-2,3-dihydroxy-5-methylhexyl]-N.aIpha.-methyl-, [1 S-(1 R*,2S*,3R(*)]]-]
2.3 | COc1ccc(C[C@H](NC(=O)[C@@H]2CCCN2C(=O)N[C@H]2C(O)O[C@H](CO)[C@@H](O)[C@@H]2O)C(=O)N[C@@H](Cc2c[nH]cn2)C(=O)N[C@@H](CC2CCCCC2)[C@@H](O)[C@@H](O)CC(C)C)cc1 (relative stereo) [Example 15]
0.21 | COc1ccc(C[C@H](NC(=O)[C@@H]2CCCN2C(=O)NC(CO)(CO)CO)C(=O)N[C@@H](Cc2c[nH]cn2)C(=O)N[C@@H](CC2CCCCC2)[C@@H](O)[C@@H](O)CC(C)C)cc1 [Example 14, L-Histidinamide, 1-[[[2-hydroxy-1,1-bis(hydroxymethyl)ethyl]amino]carbonyl]-L-prolyl-O-methyl-L-tyrosyl-N-[1-(cyclohexylmethyl)-2,3-dihydroxy-5-methylhexyl]-, [1S-(1R*,2S*,3R*)]-]
